Like-named read-outs stand apart in the source and are kept apart here.
Columns and labels:
[1] = molecular target: T1, full-length beta-Catenin (Uniprot ID P35222) (Homo sapiens, UniProt P35222); assay: Fluorescence polarization IC50 (beta-catenin / 5FAM-TCF4 10-53 competition); type: binding
T1 construct: 10 nM full-length beta-Catenin (Uniprot ID P35222)
T1 sequence (P35222 1-781): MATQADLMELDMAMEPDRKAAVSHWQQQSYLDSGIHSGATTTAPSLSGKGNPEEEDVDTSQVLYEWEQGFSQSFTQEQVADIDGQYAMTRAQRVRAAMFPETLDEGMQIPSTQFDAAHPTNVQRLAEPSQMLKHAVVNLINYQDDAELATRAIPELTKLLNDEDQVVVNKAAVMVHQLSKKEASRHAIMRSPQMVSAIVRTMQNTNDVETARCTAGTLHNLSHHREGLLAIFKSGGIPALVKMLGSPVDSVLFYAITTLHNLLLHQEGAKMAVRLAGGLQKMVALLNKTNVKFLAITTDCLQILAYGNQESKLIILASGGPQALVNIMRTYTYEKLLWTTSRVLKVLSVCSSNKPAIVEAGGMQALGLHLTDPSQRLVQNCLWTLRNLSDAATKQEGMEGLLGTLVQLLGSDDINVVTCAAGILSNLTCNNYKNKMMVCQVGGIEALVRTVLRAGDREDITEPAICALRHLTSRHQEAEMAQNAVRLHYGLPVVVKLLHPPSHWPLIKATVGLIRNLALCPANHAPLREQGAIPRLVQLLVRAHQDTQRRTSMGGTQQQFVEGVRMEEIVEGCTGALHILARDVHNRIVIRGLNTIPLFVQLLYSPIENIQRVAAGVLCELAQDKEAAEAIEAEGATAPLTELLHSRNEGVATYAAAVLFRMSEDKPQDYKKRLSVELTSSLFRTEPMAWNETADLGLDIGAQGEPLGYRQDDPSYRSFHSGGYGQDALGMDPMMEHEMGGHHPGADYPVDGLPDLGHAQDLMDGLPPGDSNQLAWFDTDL

CHI Log D procedure = type: physicochemical; conditions: for chromatographic logD: pH 7.4, CHI Log D; for CHI Log D: pH 7.4
[2] = fluorescence polarization, read-out: beta-Catenin FP IC50

| Compound | IC50 [1, 2] [nM] | chromatographic logD (CHI Log D procedure) | IC50 ([1]; read-out: FP EC50) [nM] | CHI Log D (CHI Log D procedure) |
| --- | --- | --- | --- | --- |
| CC(=O)N1CCC[C@]12CC=CCCCC1(CCCC=CCCCCCC[C@@](C)(C(=O)N[C@@H](Cc3cccc(F)c3)C(=O)N[C@@H](Cc3csc4ccccc34)C(=O)N[C@@H](CCC(N)=O)C(N)=O)NC(=O)[C@H](CCC(N)=O)NC(=O)[C@H](Cc3cccc(C)c3)NC(=O)[C@H](C)NC(=O)[C@H](C)NC(=O)[C@H](CN(CC(=O)O)CC(F)(F)F)NC(=O)[C@H](CC(=O)O)NC1=O)NC(=O)[C@H](C)NC(=O)[C@H](CC(=O)O)NC2=O (stereo partly drawn) [I-404, Ac-PL3-Asp-Ala-B5-Asp-TfeGA-Ala-Ala-3MeF-Gln-S8-3FF-BztA-Gln-NH2] | 1850 | 2.4 |  |  |
| CC(=O)N1CCC[C@]12CC=CCCCC1(CCCC=CCOC(=O)N(C)CCC[C@@](C)(C(=O)N[C@@H](Cc3cccc(F)c3)C(=O)N[C@@H](Cc3csc4ccccc34)C(=O)N[C@@H](CCC(N)=O)C(N)=O)NC(=O)[C@H](CCC(N)=O)NC(=O)[C@H](Cc3cccc(C)c3)NC(=O)[C@H](C)NC(=O)[C@H](C)NC(=O)[C@H](CN(CC(=O)O)CC(F)(F)F)NC(=O)[C@H](CC(=O)O)NC1=O)NC(=O)[C@H](C)NC(=O)[C@H](CC(=O)O)NC2=O (stereo partly drawn) [I-405, Ac-PL3-Asp-Ala-B5-Asp-TfeGA-Ala-Ala-3MeF-Gln-SeN-3FF-BztA-Gln-NH2] | 3820 | 1.72 |  |  |
| CC(=O)N1CCC[C@]12CC=CCCCC1(CCCC=CCCCCCC[C@@](C)(C(=O)N[C@@H](Cc3cccc(F)c3)C(=O)N[C@@H](Cc3csc4ccccc34)C(=O)N[C@@H](Cc3c[nH]cn3)C(N)=O)NC(=O)[C@H](CCC(N)=O)NC(=O)[C@H](Cc3ccsc3)NC(=O)[C@H](C)NC(=O)[C@H](C)NC(=O)[C@H](CCC(=O)O)NC(=O)[C@H](CC(=O)O)NC1=O)NC(=O)[C@H](C)NC(=O)[C@H](CC(=O)O)NC2=O (stereo partly drawn) [I-430, Ac-PL3-Asp-Ala-B5-Asp-Glu-Ala-Ala-3Thi-Gln-S8-3FF-BztA-His-NH2] | 154 | 2.13 |  |  |
| CC(=O)N1CCC[C@]12CC=CCCCC1(CCCC=CCCCCCC[C@@](C)(C(=O)N[C@@H](Cc3ccccc3)C(=O)N[C@@H](Cc3csc4ccccc34)C(=O)N[C@@H](CCC(N)=O)C(N)=O)NC(=O)[C@H](CC(N)=O)NC(=O)[C@H](Cc3ccccc3F)NC(=O)[C@H](C)NC(=O)[C@H](C)NC(=O)[C@H](CCC(=O)O)NC(=O)[C@H](CC(=O)O)NC1=O)NC(=O)[C@H](C)NC(=O)[C@H](CC(=O)O)NC2=O (stereo partly drawn) [I-453, Ac-PL3-Asp-Ala-B5-Asp-Glu-Ala-Ala-2FF-Asn-S8-Phe-BztA-Gln-NH2] | 1550 | 2.01 |  |  |
| CC(=O)N1CCC[C@]12CC=CCCCC1(CCCC=CCCCCCC[C@@](C)(C(=O)N[C@@H](Cc3ccccc3)C(=O)N[C@@H](Cc3csc4ccccc34)C(=O)N[C@@H](CCC(N)=O)C(N)=O)NC(=O)[C@H](CC(N)=O)NC(=O)[C@H](Cc3ccccc3C)NC(=O)[C@H](C)NC(=O)[C@H](C)NC(=O)[C@H](CCC(=O)O)NC(=O)[C@H](CC(=O)O)NC1=O)NC(=O)[C@H](C)NC(=O)[C@H](CC(=O)O)NC2=O (stereo partly drawn) [I-456, Ac-PL3-Asp-Ala-B5-Asp-Glu-Ala-Ala-2MeF-Asn-S8-Phe-BztA-Gln-NH2] | 2170 |  | 2170 | 2.0045 |
| CC(=O)N1CCC[C@]12CC=CCCCC1(CCCC=CCCCCCC[C@@](C)(C(=O)N[C@@H](Cc3ccccc3)C(=O)N[C@@H](Cc3csc4ccccc34)C(=O)N[C@@H](CCC(N)=O)C(N)=O)NC(=O)[C@H](CC(N)=O)NC(=O)[C@H](Cc3ccccc3C)NC(=O)[C@H](C)NC(=O)[C@H](C)NC(=O)[C@H](CCC(=O)O)NC(=O)[C@H](CC(=O)O)NC1=O)NC(=O)[C@H](C)NC(=O)[C@H](CC(=O)O)NC2=O (stereo partly drawn) [I-457, Ac-PL3-Asp-Ala-B5-Asp-Glu-Ala-Ala-2MeF-Asn-S8-Phe-BztA-Gln-NH2] | 1440 |  | 1440 | 2.0242 |
| CC(=O)N1CCC[C@]12CC=CCCCC1(CCCC=CCCCCCC[C@@](C)(C(=O)N[C@@H](Cc3ccccc3)C(=O)N[C@@H](Cc3csc4ccccc34)C(=O)N[C@@H](CCC(N)=O)C(N)=O)NC(=O)[C@H](CC(N)=O)NC(=O)[C@H](Cc3ccc(C)cc3)NC(=O)[C@H](C)NC(=O)[C@H](C)NC(=O)[C@H](CCC(=O)O)NC(=O)[C@H](CC(=O)O)NC1=O)NC(=O)[C@H](C)NC(=O)[C@H](CC(=O)O)NC2=O (stereo partly drawn) [I-459, Ac-PL3-Asp-Ala-B5-Asp-Glu-Ala-Ala-4MeF-Asn-S8-Phe-BztA-Gln-NH2] | 183 | 2.06 |  |  |
| CC(=O)N1CCC[C@]12CC=CCCCC1(CCCC=CCCCCCC[C@@](C)(C(=O)N[C@@H](Cc3ccccc3)C(=O)N[C@@H](Cc3csc4ccccc34)C(=O)N[C@@H](CCC(N)=O)C(N)=O)NC(=O)[C@H](CC(N)=O)NC(=O)[C@H](Cc3ccco3)NC(=O)[C@H](C)NC(=O)[C@H](C)NC(=O)[C@H](CCC(=O)O)NC(=O)[C@H](CC(=O)O)NC1=O)NC(=O)[C@H](C)NC(=O)[C@H](CC(=O)O)NC2=O (stereo partly drawn) [I-460, Ac-PL3-Asp-Ala-B5-Asp-Glu-Ala-Ala-2FurA-Asn-S8-Phe-BztA-Gln-NH2] | 195 | 1.99 |  |  |
| CC(=O)N1CCC[C@]12CC=CCCCC1(CCCC=CCCCCCC[C@@](C)(C(=O)N[C@@H](Cc3ccccc3)C(=O)N[C@@H](Cc3csc4ccccc34)C(=O)N[C@@H](CCC(N)=O)C(N)=O)NC(=O)[C@H](CC(N)=O)NC(=O)[C@H](Cc3ccc(N)cc3)NC(=O)[C@H](C)NC(=O)[C@H](C)NC(=O)[C@H](CCC(=O)O)NC(=O)[C@H](CC(=O)O)NC1=O)NC(=O)[C@H](C)NC(=O)[C@H](CC(=O)O)NC2=O (stereo partly drawn) [I-461, Ac-PL3-Asp-Ala-B5-Asp-Glu-Ala-Ala-4AmPhe-Asn-S8-Phe-BztA-Gln-NH2] | 125 | 1.94 |  |  |

Further lines, results first:

| IC50 [1, 2] [nM] | chromatographic logD (CHI Log D procedure) | IC50 ([1]; read-out: FP EC50) [nM] | CHI Log D (CHI Log D procedure) | Compound |
| --- | --- | --- | --- | --- |
| 92 | 2.65 |  |  | CC[C@H](C)[C@@H]1NC(=O)[C@H](CC(=O)O)NC(=O)[C@]2(CC=CCCCC3(CCCC=CCCCCCC[C@@](C)(C(=O)N[C@@H](Cc4cccc(F)c4)C(=O)N[C@@H](Cc4csc5ccccc45)C(=O)N[C@@H](CCC(N)=O)C(N)=O)NC(=O)[C@H](CCC(N)=O)NC(=O)[C@H](Cc4cccs4)NC(=O)[C@H](C)NC(=O)[C@H](C)NC(=O)[C@H](CCC(=O)O)NC(=O)[C@H](CC(=O)O)NC3=O)NC1=O)CCCN2C(C)=O (stereo partly drawn) [I-412, Ac-PL3-Asp-Ile-B5-Asp-Glu-Ala-Ala-2Thi-Gln-S8-3FF-BztA-Gln-NH2] |
| 23 |  | 23 | 2.114 | CC(=O)N1CCC[C@]12CC=CCCCC1(CCCC=CCCCCCC[C@@](C)(C(=O)N[C@@H](Cc3ccccc3)C(=O)N[C@@H](Cc3csc4ccccc34)C(=O)N[C@@H](Cc3c[nH]cn3)C(N)=O)NC(=O)[C@H](CCC(N)=O)NC(=O)[C@H](Cc3ccccc3)NC(=O)[C@H](C)NC(=O)[C@H](C)NC(=O)[C@H](CCC(=O)O)NC(=O)[C@H](CC(=O)O)NC1=O)NC(=O)[C@H](C)NC(=O)[C@H](CC(=O)O)NC2=O (stereo partly drawn) [I-419, Ac-PL3-Asp-Ala-B5-Asp-Glu-Ala-Ala-Phe-Gln-S8-Phe-BztA-His-NH2] |
| 125 | 2.05 |  |  | CC(=O)N1CCC[C@]12CC=CCCCC1(CCCC=CCCCCCC[C@@](C)(C(=O)N[C@@H](Cc3ccccc3)C(=O)N[C@@H](Cc3csc4ccccc34)C(=O)N[C@@H](CCC(N)=O)C(N)=O)NC(=O)[C@H](CC(N)=O)NC(=O)[C@H](Cc3cccc(F)c3)NC(=O)[C@H](C)NC(=O)[C@H](C)NC(=O)[C@H](CCC(=O)O)NC(=O)[C@H](CC(=O)O)NC1=O)NC(=O)[C@H](C)NC(=O)[C@H](CC(=O)O)NC2=O (stereo partly drawn) [I-454, Ac-PL3-Asp-Ala-B5-Asp-Glu-Ala-Ala-3FF-Asn-S8-Phe-BztA-Gln-NH2] |
| 83.5 | 2.04 |  |  | CC(=O)N1CCC[C@]12CC=CCCCC1(CCCC=CCCCCCC[C@@](C)(C(=O)N[C@@H](Cc3ccccc3)C(=O)N[C@@H](Cc3csc4ccccc34)C(=O)N[C@@H](CCC(N)=O)C(N)=O)NC(=O)[C@H](CC(N)=O)NC(=O)[C@H](Cc3ccc(F)cc3)NC(=O)[C@H](C)NC(=O)[C@H](C)NC(=O)[C@H](CCC(=O)O)NC(=O)[C@H](CC(=O)O)NC1=O)NC(=O)[C@H](C)NC(=O)[C@H](CC(=O)O)NC2=O (stereo partly drawn) [I-455, Ac-PL3-Asp-Ala-B5-Asp-Glu-Ala-Ala-4FF-Asn-S8-Phe-BztA-Gln-NH2] |
| 102 | 2.07 |  |  | CC(=O)N1CCC[C@]12CC=CCCCC1(CCCC=CCCCCCC[C@@](C)(C(=O)N[C@@H](Cc3ccccc3)C(=O)N[C@@H](Cc3csc4ccccc34)C(=O)N[C@@H](CCC(N)=O)C(N)=O)NC(=O)[C@H](CC(N)=O)NC(=O)[C@H](Cc3cccc(C)c3)NC(=O)[C@H](C)NC(=O)[C@H](C)NC(=O)[C@H](CCC(=O)O)NC(=O)[C@H](CC(=O)O)NC1=O)NC(=O)[C@H](C)NC(=O)[C@H](CC(=O)O)NC2=O (stereo partly drawn) [I-458, Ac-PL3-Asp-Ala-B5-Asp-Glu-Ala-Ala-3MeF-Asn-S8-Phe-BztA-Gln-NH2] |

From patent publication US20240116985A1, “STAPLED PEPTIDES AND METHODS THEREOF” (priority 2020, published 2024)
